Assay results: the OligoGym collection
After the bases stand the sugars from the 5' end (letter, count) and the backbone: PS all phosphorothioate, else s phosphorothioate and o phosphodiester by linkage. Methylation of C is not given here. e = 2'-O-(2-methoxyethyl) (MOE); k = constrained ethyl (cEt); d = 2'-deoxy (DNA); m = 2'-O-methyl

Target: HSD17B13
Conditions: ASO, HepaRG

Sequence	target mRNA inhibition (1 µM) [%]	further results
CCAAGTAATTACTTCT (sugars k3 d10 k3, PS)	68	–
CCACACTAATGAATCA (sugars k3 d10 k3, PS)	43	–
CCACATACGCATGCGC (sugars k3 d10 k3, PS)	68	target mRNA inhibition (0.02 µM): 3%; target mRNA inhibition (0.078 µM): 1%; target mRNA inhibition (0.313 µM): 43%; target mRNA inhibition (1.25 µM): 63%; target mRNA inhibition (5 µM): 88%
CCACGATTGTTACATC (sugars k3 d10 k3, PS)	42	–
CCACTGGATGGATTTC (sugars k3 d10 k3, PS)	68	–
CCAGAATAGAGTTGCA (sugars k3 d10 k3, PS)	62	–
CCAGGTTGAGATAAAG (sugars k3 d9 k3 e1, PS)	51	–
CCAGGTTGAGATAAAG (sugars kkdddddddddkekek, PS)	55	–
CCAGTACAGTTCCTTT (sugars k3 d10 k3, PS)	66	target mRNA inhibition (0.02 µM): 38%; target mRNA inhibition (0.078 µM): 37%; target mRNA inhibition (0.313 µM): 53%; target mRNA inhibition (1.25 µM): 75%; target mRNA inhibition (5 µM): 89%
CCAGTAGGTGTGTTTC (sugars k3 d10 k3, PS)	55	–
CCAGUACAGTTCCTTT (sugars k3 d1 m1 d8 k3, PS)	51	–
CCATAATCTTGTGCTT (sugars k3 d10 k3, PS)	32	–
CCATAGGACATGGAGA (sugars k3 d10 k3, PS)	68	target mRNA inhibition (0.02 µM): 7%; target mRNA inhibition (0.078 µM): 12%; target mRNA inhibition (0.313 µM): 31%; target mRNA inhibition (1.25 µM): 76%; target mRNA inhibition (5 µM): 90%
CCATCATCGATGGAAG (sugars k3 d10 k3, PS)	8	–
CCATCTATCAGACTTC (sugars k3 d1 m1 d8 k3, PS)	56	–
CCCCAAACATGGATGT (sugars k3 d10 k3, PS)	62	–
CCCCTAAGTTATTATC (sugars k3 d10 k3, PS)	33	–
CCCTAGATTCTACACT (sugars k3 d10 k3, PS)	22	–
CCGAATTATTTCTTGC (sugars k3 d10 k3, PS)	60	–
CCGCCCTTAAGTCATT (sugars k3 d10 k3, PS)	53	–
CCGTTTTGGGCTAATG (sugars k3 d10 k3, PS)	58	–
CCGTTTTGGGCTAATG (sugars kkdddddddddkekek, PS)	72	target mRNA inhibition (0.02 µM): 0%; target mRNA inhibition (0.078 µM): 4%; target mRNA inhibition (0.313 µM): 36%; target mRNA inhibition (1.25 µM): 52%; target mRNA inhibition (5 µM): 78%
CCTAAAGGAGATCTGA (sugars k3 d10 k3, PS)	48	–
CCTAGTTACAAACCAC (sugars k3 d10 k3, PS)	51	–

Sequence	target mRNA inhibition (1 µM) [%]	further results
CCTATATACATCCAAG (sugars kkdddddddddkekek, PS)	61	–
CCTAUATACATCCAAG (sugars k3 d1 m1 d8 k3, PS)	39	–
CCTCGATCCTATATAC (sugars k3 d9 k3 e1, PS)	11	–
CCTCGATCCTATATAC (sugars k3 d10 k3, PS)	31	–
CCTCTAAGTTAGCCCC (sugars k3 d10 k3, PS)	97	–
CCTGCTGAAACTTGAT (sugars k3 d10 k3, PS)	19	–
CCTGTGTTAGCTTTAA (sugars k3 d10 k3, PS)	67	–
CCTGTGTTAGCTTTAA (sugars kkdddddddddkekek, PS)	62	–
CCTGUGTTAGCTTTAA (sugars k3 d1 m1 d8 k3, PS)	28	–
CCTTATGTTATCTCAA (sugars k3 d10 k3, PS)	67	–
CCTTTAGTTAGAATAG (sugars k3 d10 k3, PS)	37	–
CCTTTGTATTTCGCTA (sugars k3 d10 k3, PS)	47	–
CCTTTTAACTACCCTC (sugars k3 d10 k3, PS)	22	–
CGAATTATTTCTTGCG (sugars k3 d10 k3, PS)	58	–
CGATCCTATATACATC (sugars k3 d1 m1 d8 k3, PS)	28	–
CGATCCTATATACATC (sugars k3 d9 k3 e1, PS)	29	–
CGATCCTATATACATC (sugars k3 d10 k3, PS)	33	–
CGATGTGGCCATGATT (sugars k3 d10 k3, PS)	44	–
CGATTGTTACATCACC (sugars k3 d10 k3, PS)	47	–
CGCCTAAAGGAGATCT (sugars k3 d10 k3, PS)	59	–
CGGCCTATTCTTCTGT (sugars k3 d10 k3, PS)	25	–
CGGTCACCTTTCATAA (sugars kkdddddddddkekek, PS)	70	–
CGTAAAATTGTGTCTC (sugars k3 d10 k3, PS)	43	–
CGTAAATATTCTTGAG (sugars k3 d10 k3, PS)	61	–

Sequence	target mRNA inhibition (1 µM) [%]	further results
CGTAACCATGCATTAA (sugars k3 d10 k3, PS)	68	–
CGTATTTGAGATTCAC (sugars k3 d10 k3, PS)	59	–
CGTCAAATAGGGCTGG (sugars k3 d10 k3, PS)	53	–
CGTCCAAAAGTGTCCT (sugars k3 d10 k3, PS)	53	–
CGTCCTAGGAAACAAA (sugars k3 d10 k3, PS)	45	–
CGTTTGACTGCTGCTA (sugars k3 d10 k3, PS)	58	–
CTAAAATTGTCTAAAC (sugars k3 d10 k3, PS)	35	–
CTAAACATCTCTGGGA (sugars k3 d1 m1 d8 k3, PS)	32	–
CTAAACATCTCTGGGA (sugars k3 d10 k3, PS)	62	–
CTAAACCCTGGAGCAG (sugars k3 d10 k3, PS)	42	–
CTAAAGGAGATCTGAG (sugars k3 d10 k3, PS)	47	–
CTAAATTACTCCGTTC (sugars k3 d10 k3, PS)	20	–
CTAAATTATTGCCTGA (sugars k3 d10 k3, PS)	39	–
CTAACCTGACACATAT (sugars k3 d10 k3, PS)	18	–
CTAAGTTATTATCCCC (sugars k3 d10 k3, PS)	70	target mRNA inhibition (0.02 µM): 16%; target mRNA inhibition (0.078 µM): 22%; target mRNA inhibition (0.313 µM): 48%; target mRNA inhibition (1.25 µM): 72%; target mRNA inhibition (5 µM): 95%
CTAATATTGAGGCACT (sugars k3 d10 k3, PS)	51	–
CTAATCTCAGTACTCC (sugars k3 d10 k3, PS)	53	–
CTACAAAACTGGTATC (sugars k3 d10 k3, PS)	0	–
CTACACTAATATTGAG (sugars kkdddddddddkekek, PS)	5	–
CTACAGATTGGAATGC (sugars k3 d10 k3, PS)	52	–
CTACATGACCTGGGTC (sugars k3 d10 k3, PS)	59	–
CTACATGGATCCAACA (sugars k3 d10 k3, PS)	5	–
CTACTTCACTATATTG (sugars k3 d10 k3, PS)	33	–
CTACUTGAACAGTCTT (sugars k3 d1 m1 d8 k3, PS)	79	target mRNA inhibition (0.02 µM): 9%; target mRNA inhibition (0.078 µM): 22%; target mRNA inhibition (0.313 µM): 46%; target mRNA inhibition (1.25 µM): 77%; target mRNA inhibition (5 µM): 76%

Sequence	target mRNA inhibition (1 µM) [%]	further results
CTAGGATTAATCATGG (sugars k3 d10 k3, PS)	65	–
CTAGGGAAATCTTTCA (sugars k3 d10 k3, PS)	48	–
CTAGTGGTAATGGTAA (sugars k3 d10 k3, PS)	62	–
CTATAGTAATCACAAG (sugars k3 d1 m1 d8 k3, PS)	37	–
CTCAAAGTCAGTATCC (sugars k3 d10 k3, PS)	70	–
CTCAACAGAGAATTGT (sugars k3 d10 k3, PS)	29	–
CTCAGGCTGTAAGAGT (sugars kkdddddddddkekek, PS)	10	–
CTCATTTAGCAGCTTG (sugars k3 d10 k3, PS)	70	target mRNA inhibition (0.02 µM): 1%; target mRNA inhibition (0.078 µM): 10%; target mRNA inhibition (0.313 µM): 46%; target mRNA inhibition (1.25 µM): 65%; target mRNA inhibition (5 µM): 90%
CTCCTGAGTCTTTCTA (sugars k3 d10 k3, PS)	23	–
CTCTAAGTGTAAGAGA (sugars k3 d10 k3, PS)	28	–
CTCTATTGATTGGCTT (sugars k3 d10 k3, PS)	65	–
CTCTCCATCATCGATG (sugars k3 d10 k3, PS)	0	–
CTCTGTGAAAGCCAAC (sugars k3 d10 k3, PS)	50	–
CTCTTAGCTGTGCACT (sugars k3 d9 k3 e1, PS)	66	target mRNA inhibition (0.02 µM): 0%; target mRNA inhibition (0.078 µM): 20%; target mRNA inhibition (0.313 µM): 0%; target mRNA inhibition (1.25 µM): 39%; target mRNA inhibition (5 µM): 79%
CTCTTGACAATGGTTG (sugars k3 d10 k3, PS)	50	–
CTCTUAGCTGTGCACT (sugars k3 d1 m1 d8 k3, PS)	67	target mRNA inhibition (0.02 µM): 16%; target mRNA inhibition (0.078 µM): 14%; target mRNA inhibition (0.313 µM): 33%; target mRNA inhibition (1.25 µM): 52%; target mRNA inhibition (5 µM): 58%
CTGAAAAGCCCTATTC (sugars k3 d10 k3, PS)	11	–
CTGAAATTGATACACC (sugars k3 d1 m1 d8 k3, PS)	71	–
CTGATATGAGTAAAGA (sugars k3 d10 k3, PS)	21	–
CTGCATTAATGCCACC (sugars k3 d9 k3 e1, PS)	40	–
CTGCATTAATGCCACC (sugars kkdddddddddkekek, PS)	6	–
CTGCTGCTAGTGCCAA (sugars k3 d9 k3 e1, PS)	66	–
